Residues, ends and D or L forms follow the SMILES beside them. *: point of attachment. Cbz = O=C(OCc1ccccc1)*; CH2F = FC*
Legend:
DU145 [1] = test: Stimulation of macropinocytosis (dextran uptake); format: cell-based; details: 10 μM for 24, 48, or 72 h, flow cytometry
Description: (Panel A) DU145 cells were treated with 10 μM tAS1411 or 10 μM tCRO or no oligonucleotide in complete DMEM medium at 37° C. for the time indicated. After treatment, cell medium was changed for fresh complete medium containing 0.2 mg/ml dextran-10K labeled with Alexa Fluor 488, and cells were incubated for 30 min at 37° C. After incubation, cells were harvested and analyzed by flow cytometry to determine dextran uptake. (Panel B) The same experiment was performed using Hs27 cells. (Panel C) DU145 cells were treated with 10 μM tAS1411 or 10 μM tCRO or no oligonucleotide in complete DMEM medium at 37° C. for 48 h. After treatment, cell medium was changed for fresh complete medium containing 0.2 mg/ml dextran-10K tagged with Alexa Fluor 488, and cells were incubated for 30 min at 37° C. Then, cells were washed with cold PBS, added PBS containing 5 μg/ml PI and incubated on ice for 5 min. After washing with cold PBS, cells were fixed and the distribution of macropinocytic marker was visualized by confocal microscopy. The nucleus was stained with DAPI (blue). Scale bars, 10 μm. All experiments have been repeated at least three times. Data are mean of three independent samples; bars, SE; *(p<0.05).
FIG. 6 are graphs showing that nucleolin regulates AS1411-induced stimulation of macropinocytosis. DU145 cells were untreated (no transfection) or transfected, without siRNA (mock), or with 30 nM of one of three different nucleolin siRNAs (NCL1, NCL2, NCL3) or a control siRNA (scramble). 48 h after transfection, cells were incubated with 10 μM tAS1411, 10 μM tCRO, or no oligonucleotide in complete DMEM medium at 37° C. for 24 h. (Panel A) After treatment, cell medium was changed for fresh complete medium containing 0.2 mg/ml dextran-10K labeled with Alexa Fluor 488 (green) and incubated for 30 min at 37° C. (Panel B) After treatment, some cells were washed, fresh complete medium containing 10 μM FL-AS1411 added and incubated for 2 h at 37° C. After incubation, cells were harvested and analyzed by flow cytometry. Mean fluorescence was normalized to “not transfected” control (Panel A) or to no pre-treatment control (Panel B). All experiments have been repeated at least three times. Data are the mean of three independent samples; bars, SE; *(p<0.05).
FIG. 11 is a graph showing a comparison between AS1411 and tAS1411 in the ability to stimulate macropinocytosis. DU145 cells were plated 18 hr before treatment with different concentrations (0, 5, 10, or 15 μM) of AS1411, tAS1411 or tCRO in complete DMEM medium at 37° C. for 48 h. After treatment, cell medium was changed for fresh complete medium containing 0.2 mg/ml dextran-10K labeled with Alexa Fluor 488, and cells were incubated for 30 min at 37° C. After incubation, cells were incubated on ice with […] PI in PBS, harvested, fixed and immediately analyzed by flow cytometry.
(§1) To analyze uptake of the oligodeoxynucleotides or dextran-10K (macropinocytic marker) by flow cytometry, 2×10^5 cells in fresh supplemented culture medium (2.5 ml) were plated into 6-well plates for 18 h. After complete adhesion, the cells were incubated with 5′-FAM tagged oligodeoxynucleotides or Alexa Fluor 488 tagged dextran-10K and incubated as indicated in the Description of the Drawings. Cells were washed once with ice-cold PBS, incubated with 1 μg/ml 7-amino-actinomycin D (7-AAD) for 5 min on ice or 1 μg/ml propidium iodide (PI), and washed twice with ice-cold PBS. Cells were then treated with 0.01% trypsin/0.5 mM EDTA (300 μl) for 3 min prior addition 3 ml supplemented culture medium. The cells were then centrifuged and resuspended in 0.5 ml of 1% paraformaldehyde for analysis by flow cytometry using a FACScalibur cytometer (BD Biosciences, Mountain View, Calif.).
AS1411 causes a change in cancer cell morphology that is characterized by vacuolization, irregular nuclei, and swollen cells (Xu et al., 2001, J. Biol. Chem., 276:43221-30). […]

U937 leukemia cells = test: Cell death mechanism (DNA laddering, immunoblotting, electron microscopy); format: cell-based
Description: (A) Trypan blue staining of U937 leukemia cells showing percentage of dead cells (trypan blue positive) over time. (B) U937 cells were untreated (Un) or treated with 1 μM AS1411 (1411) or control oligonucleotide (Ctrl) for 72 h. DNA was extracted, electrophoresed on an agarose gel and stained with ethidium bromide to probe DNA laddering. As a positive control, […] were treated with UV irradiation to induce apoptosis as previously described. […] (D) U937 cells treated as described for panel B, followed by protein extraction and immunoblotting (IB) to detect PARP cleavage and Caspase-3 activation. (E) DU145 prostate cancer cells were incubated with 10 μM of AS1411 for 24 h, or irradiated with UV (300 J/m^2 with UV Stratalinker 2400, Strategene), then cultured in fresh medium for 6 h. Assessment of cell death was carried out by flow cytometry to detect Annexin V-FITC binding and PI staining.

DU145 cells [2] = format: cell-based
Description: DU145 cells were incubated for 4 days in the presence of 10 μM AS1411 with 3-MA at the concentration indicated, and cell number was assessed by MTT assay.
It also appears unlikely that AS1411-induced cell death is due to autophagy. […] Further evidence that supports the idea that AS1411 can induce methuosis comes from the similarity between the appearance of cells treated with AS1411 and published images of glioblastoma cells undergoing Ras-induced methuosis.

Hs27 cells = test: Uptake of fluorophore-labeled oligonucleotides by flow cytometry; format: cell-based, human
Description: (§2) FIG. 1 are graphs showing that AS1411 cell internalization is an active process. Cells were plated 18 h before uptake analysis. After incubation as described, cells were washed with ice-cold PBS, incubated with 1 μg/ml 7-AAD, harvested and resuspended in 1% paraformaldehyde containing 2 μg/ml actinomycin D, then analyzed by flow cytometry. (Panel A) DU145 cells were incubated at 37° C. with fresh complete DMEM medium containing 10 μM FL-AS1411 (black line) or 10 μM FL-CRO (gray line) for the time indicated. (Panel B) DU145 cells were incubated for 2 h at 37° C. in complete or serum-free DMEM medium containing 10 μM FL-AS1411, or 10 μM FL-CRO, or no oligonucleotide. (Panel C) Various cell lines were incubated with 10 μM FL-AS1411 (black outline histogram), 10 μM FL-CRO (gray outline histogram) or without DNA (solid gray histogram) at 37° C. or 4° C. for 2 h. All experiments were repeated at least three times. Data are mean of three independent samples; bars, SE; *(p<0.05).
(§3) FIG. 2 are graphs showing that AS1411 is internalized by different endocytic mechanisms in DU145 cancer cells and in non-malignant Hs27 cells. DU145 or Hs27 cells were plated 18 h before uptake analysis. Cells were pre-treated as described with inhibitor (gray histogram) or the corresponding vehicle control (black histogram) before addition of 10 μM FL-AS1411 and incubation at 37° C. for 2 h. After incubation, cells were harvested and analyzed by flow cytometry. Pre-treatment conditions were at 37° C. with: (Panel A) 5 μM Cytochalasin D for 30 min; (Panel B) 80 μM Dynasore for 30 min; or (Panel C) 3 mM amiloride for 1 h. All experiments were repeated at least three times and representative data are shown. Solid gray histograms represent background autofluorescence of unstained cells.
(§4) FIG. 9 are graphs showing the effects of inhibitors on various endocytic pathways. DU145 or Hs27 cells were plated 18 hr before uptake analysis. (Panel A) DU145 cells were pre-treated with dynamin inhibitor, […] Dynasore (black histogram) or DMSO (gray histogram) for 30 min at 37° C. After pre-treatment, cells were treated with […] transferrin conjugated with Alexa Fluor 488 for 30 min at 37° C. (Panel B) DU145 and Hs27 cells were pre-treated with 3 mM amiloride (black histogram) or vehicle (serum-free medium, gray histogram) for 1 h at 37° C. After pre-treatment, FL-CRO was added at a concentration of 10 μM and incubated at 37° C. for 2 h. After incubation, cells were harvested and analyzed by FACS. Gray solid histogram represents unstained cells.
To analyze uptake of the oligodeoxynucleotides or dextran-10K (macropinocytic marker) by flow cytometry, 2×10^5 cells in fresh supplemented culture medium (2.5 ml) were plated into 6-well plates for 18 h. […]

DU145 cells [3] = test: as above; format: cell-based
Description: as §2, §3
DU145 cells were transfected for 48 h without siRNA (mock, M), or with 30 nM of one of three different nucleolin siRNAs (NCL1, NCL2, NCL3) or a control siRNA (scramble, S), or contransfected with 10 nM of each nucleolin siRNAs (mix). (Panel A) Cells were lysed and total cell lyses were analyzed by Western blotting using the antibodies shown. (Panel B) Cell-surface proteins from intact transfected DU145 cells were labeled covalently with membrane-impermeable biotinylating agent. Cells were lysed, then biotinylated plasma membrane proteins were captured with streptavidin-agarose beads and analyzed by blotting with anti-nucleolin antibody (upper panel). After stripping, the membrane was reprobed with antibodies for a plasma membrane marker (anti-pan Cadherin) and a nuclear marker (anti-histone 3) to confirm the fractionation. Total lysate (Lys) was used as control. (Panel C) The medium of transfected cells was replaced by fresh complete DMEM medium containing no oligonucleotide (gray dashed histogram) or 10 μM FL-CRO (gray solid line histogram) or 10 μM FL-AS1411 (black solid line histogram) and incubated at 37° C. for 2 h. After incubation, cells were harvested and analyzed by flow cytometry.
DU145 cells were plated 18 hr before uptake analysis. Cell medium was changed with fresh complete DMEM medium containing different concentrations of FL-AS1411 (black line) or FL-CRO (gray line), and incubated at 37° C. for 2 hrs. After incubation, cells were harvested and analyzed by flow cytometry.
as §4, with “Gray solid histogram represents unstained cells.” left out

DU145 [4] = test: Uptake of AS1411 by macropinocytosis (MP); format: cell-based; details: 3 mM amiloride for 1 h, then 10 μM FL-AS1411 2 h
Description: as §3
as §1, with “Cells were then treated with 0.01% trypsin/0.5 mM EDTA (300 μl) for 3 min prior addition 3 ml supplemented culture medium. The cells were then centrifuged and resuspended in 0.5 ml of 1% paraformaldehyde for analysis by flow cytometry using a FACScalibur cytometer (BD Biosciences, Mountain View, Calif.).” left out

MDA-MB-231 = test: Uptake of AS1411 by macropinocytosis (MP); format: cell-based; details: amiloride treatment, MDA-MB-231 cells
Text: (§5) There was little effect of amiloride treatment on uptake of FL-CRO in either DU145 cancer cells or non-malignant Hs27 cells (FIG. 9B). […] These studies also confirmed the previous results that there was higher overall uptake of FL-AS1411 in Hs27 cells than in DU145 cells.
(§6) It has recently been discovered that AS1411 can stimulate macropinocytosis (MP) in cancer cells and this finding was verified by several different methods and in multiple cancer cell lines (Table 1).

MCF7 = test: Uptake of AS1411 by macropinocytosis (MP); format: cell-based; details: amiloride treatment, MCF7 cells
Text: as §5, §6

[5] = 5 μM cytochalasin D for 30 min, then 10 μM FL-AS1411 2 h
[6] = 3 mM amiloride for 1 h, then 10 μM FL-CRO 2 h

5′-d(TTTCCTCCTCCTCCTTCTCCTCCTCCTCC) (DNA TTTCCTCCTCCTCCTTCTCCTCCTCCTCC; unmodified DNA) [tCRO, reference compound]
uptake of the macropinocytic marker, dextran, after treatment (DU145 [1]): No changes in dextran uptake

NC(=O)c1cccc(N)c1 [3-aminobenzamide]
effect of pre-incubation on AS1411-induced cell death (U937 leukemia cells): did not inhibit AS1411-induced cell death

Cn1cnc(N)c2ncnc1-2 [3-methyladenine]
toxicity of the inhibitor alone (DU145 cells [2]): some toxicity by itself
effect on AS1411 activity (DU145 cells [2]; 4 days, 10 μM AS1411): did not inhibit AS1411 activity

C=C1[C@@H](C)[C@H]2[C@H](Cc3ccccc3)NC(=O)[C@]23[C@H](OC(C)=O)/C=C/[C@@](C)(O)C(=O)[C@@H](C)C/C=C/[C@H]3[C@@H]1O [Cytocholasin D, Cytochalasin D, reference compound]
effect of pre-treatment on FL-AS1411 uptake (Hs27 cells; [5]): decrease in FL-AS1411 uptake
effect of pre-treatment on FL-AS1411 uptake (DU145 cells [3]; [5]): decrease in FL-AS1411 uptake

N=C(N)NC(=O)c1nc(Cl)c(N)nc1N [amiloride, reference compound]
effect of pre-treatment on FL-AS1411 uptake (DU145 [4]): reduction in FL-AS1411 uptake
effect of treatment on uptake of FL-CRO (Hs27 cells; [6]): little effect
effect of treatment on AS1411 uptake (MDA-MB-231): affected the AS1411 uptake
effect of treatment on AS1411 uptake (MCF7): affected the AS1411 uptake
effect of treatment on uptake of FL-CRO (DU145 cells [3]; [6]): little effect

COC(=O)CC[C@H](NC(=O)[C@H](CC(=O)OC)NC(=O)OCc1ccccc1)C(=O)N[C@H](C(=O)N[C@@H](CC(=O)OC)C(=O)CF)C(C)C [zDEVD-fmk]
effect of pre-incubation on AS1411-induced cell death (U937 leukemia cells): did not inhibit AS1411-induced cell death

CC[C@H](C)[C@H](NC(=O)OCc1ccccc1)C(=O)N[C@@H](CCC(=O)OC)C(=O)N[C@H](C(=O)N[C@@H](CC(=O)OC)C(=O)CF)[C@@H](C)O [zIETD-fmk] (Cbz-IE(OMe)TD(OMe)-CH2F)
effect of pre-incubation on AS1411-induced cell death (U937 leukemia cells): did not inhibit AS1411-induced cell death

COC(=O)CC[C@H](NC(=O)[C@H](CC(C)C)NC(=O)OCc1ccccc1)C(=O)N[C@@H](Cc1cnc[nH]1)C(=O)N[C@@H](CC(=O)OC)C(=O)CF [zLEHD-fmk] (Cbz-LE(OMe)HD(OMe)-CH2F)
effect of pre-incubation on AS1411-induced cell death (U937 leukemia cells): did not inhibit AS1411-induced cell death

COC(=O)C[C@H](NC(=O)[C@H](C)NC(=O)[C@@H](NC(=O)OCc1ccccc1)C(C)C)C(=O)CF [zVAD-fmk] (Cbz-Val-Ala-Asp(OMe)-CH2F)
effect of pre-incubation on AS1411-induced cell death (U937 leukemia cells): did not inhibit AS1411-induced cell death
